In patent publication US8193189B2, “Quinoxaline derivatives as tyrosine kinase activity inhibitors” (Novartis AG, priority 2007, dated 2012):

Experiments:
GST-JAK2(808-1132) = target: T1, GST-JAK2(808-1132) (Homo sapiens, UniProt O60674); experiment: EPK JAK-family kinases profiling assay (Caliper mobility shift), JAK2; format: biochemical; conditions: ATP 20 μM, 1.8 nM kinase
T1 construct: GST-JAK2(808-1132); purchased Invitrogen (Carlsbad, USA) #4288
Procedure, shortened: (§1)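 Turnover was read as substrate/product ratio after mobility-shift capillary-like separation of each reaction, run for 60 min at 30 °C with GST-tagged kinase domain, labelled peptide and ATP, and terminated with EDTA stop buffer.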

GST-JAK3(811-1124) = target: T2, GST-JAK3(811-1124) (Homo sapiens, UniProt P52333); experiment: EPK JAK-family kinases profiling assay (Caliper mobility shift), JAK3; format: biochemical; conditions: ATP 80 μM, 6 nM kinase
T2 construct: GST-JAK3(811-1124); made in house
T2 sequence (P52333 811-1124): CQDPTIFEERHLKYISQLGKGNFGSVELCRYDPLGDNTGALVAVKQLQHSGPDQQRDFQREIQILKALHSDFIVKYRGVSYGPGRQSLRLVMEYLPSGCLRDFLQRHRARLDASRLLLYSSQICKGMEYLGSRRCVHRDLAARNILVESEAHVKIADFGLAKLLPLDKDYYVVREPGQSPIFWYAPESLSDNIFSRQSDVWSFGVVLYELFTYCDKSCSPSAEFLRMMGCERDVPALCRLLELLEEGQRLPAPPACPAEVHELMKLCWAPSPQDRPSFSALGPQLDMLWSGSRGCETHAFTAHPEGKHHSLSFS
Procedure, shortened: as §1

GST-JAK1(866-1154) = target: T3, GST-JAK1(866-1154) (Homo sapiens, UniProt P23458); experiment: EPK JAK-family kinases profiling assay (Caliper mobility shift), JAK1; format: biochemical; conditions: ATP 40 μM, 50 nM kinase
T3 construct: GST-JAK1(866-1154); made in house
T3 sequence (P23458 866-1154): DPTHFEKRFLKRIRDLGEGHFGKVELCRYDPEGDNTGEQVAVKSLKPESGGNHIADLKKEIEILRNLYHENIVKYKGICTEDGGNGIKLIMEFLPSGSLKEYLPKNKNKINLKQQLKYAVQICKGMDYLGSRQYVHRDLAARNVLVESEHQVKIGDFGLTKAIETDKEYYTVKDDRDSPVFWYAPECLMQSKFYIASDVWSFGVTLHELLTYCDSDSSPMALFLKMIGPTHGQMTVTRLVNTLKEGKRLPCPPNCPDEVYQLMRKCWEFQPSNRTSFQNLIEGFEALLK
Procedure, shortened: as §1

GST-TYK2(888-1187) = target: T4, GST-TYK2(888-1187) (Homo sapiens, UniProt P29597); experiment: EPK JAK-family kinases profiling assay (Caliper mobility shift), TYK2; format: biochemical; conditions: ATP 30 μM, 40 nM kinase
T4 construct: GST-TYK2(888-1187); made in house
T4 sequence (P29597 888-1187): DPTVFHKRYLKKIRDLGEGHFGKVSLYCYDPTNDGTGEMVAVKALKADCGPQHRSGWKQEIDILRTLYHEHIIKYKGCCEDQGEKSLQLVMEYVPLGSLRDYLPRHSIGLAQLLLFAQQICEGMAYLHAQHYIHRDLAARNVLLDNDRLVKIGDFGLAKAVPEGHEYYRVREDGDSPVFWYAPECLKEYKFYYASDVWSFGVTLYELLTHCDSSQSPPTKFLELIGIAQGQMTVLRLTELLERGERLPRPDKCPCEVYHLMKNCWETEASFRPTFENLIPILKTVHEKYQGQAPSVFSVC
Excerpt: All four kinases of the JAK-family kinases were used as purified recombinant GST-fusion proteins, containing the active kinase domains. GST-JAK1(866-1154), GST-JAK3(811-1124), and GST-TYK2(888-1187) were expressed and purified by affinity chromatography at the EPK biology unit. GST-JAK2(808-1132) was purchased from Invitrogen (Carlsbad, USA, #4288).
The kinase assays were based on the Caliper mobility shift assay using the LabChip 3000 systems. This technology is similar to capillary electrophoresis and uses charge driven separation of substrate and product in a microfluidic chip.
All kinase reactions were performed in 384 well microtiter plates in a total reaction volume of 18 μl. The assay plates were prepared with 0.1 μl per well of test compound in the appropriate test concentration, as described under the section “preparation of compound dilutions”. The reactions were started by combining 9 μl of substrate mix (consisting of peptide and ATP) with 9 μl of kinase dilution. The reactions were incubated for 60 minutes at 30° C. and stopped by adding 70 μl of stop buffer (100 mM Hepes, 5% DMSO, 0.1% Coating reagent, 10 mM EDTA, 0.015% Brij 35).
Fluorescently labeled synthetic peptides were used as substrates in all reactions. […] Specific assay conditions are described in Table 1:
The terminated reactions were transferred to the Caliper LabChip 3000 reader and the turnover of each reaction was measured by determining the substrate/product ratio.
Test compounds were dissolved in DMSO (10 mM) and transferred into 1.4 mL flat bottom or V-shaped Matrix tubes carrying a unique 2D matrix chip by individual compound hubs. The numbers of these chips were distinctively linked to the individual compound identification numbers. The stock solutions were stored at −20° C. if not used immediately. For the test procedure the vials were defrosted and identified by a scanner whereby a working sheet was generated that guided the subsequent working steps.
Compound dilutions were made in 96 well plates. This format enabled the assay of maximally 40 individual test compounds at 8 concentrations (single points) including 4 reference compounds. The dilution protocol included the production of pre-dilution plates, master plates and assay plates:
Pre-dilution plates: 96 polypropylene well plates were used as pre-dilution plates. A total of 4 pre-dilution plates were prepared including 10 test compounds each on the plate positions A1-A10, one standard compound at A11 and one DMSO control at A12. All dilution steps were done on a HamiltonSTAR robot.
Master plates: 100 μL of individual compound dilutions including standard compound and controls of the 4 “pre-dilution plates” were transferred into a 384 “master plate” including the following concentrations 1′820, 564, 182, 54.6, 18.2, 5.46, 1.82 and 0.546 μM, respectively in 90% of DMSO.
Assay plates: Identical assay plates were then prepared by pipetting 100 nL each of compound dilutions of the master plates into 384-well “assay plates”. […] The preparation of the master plates were handled by the Matrix PlateMate Plus robot and replication of assay plates by the HummingBird robot.

[1] = test system: JAK/STAT pathway (JAK1/JAK2-dependent nuclear translocation of STAT1-GFP); experiment: Inhibition of the JAK/STAT pathway: IFN-γ stimulated nuclear translocation of STAT1-GFP in HT1080 fibrosarcoma cells; format: cell-based; conditions: Homo sapiens, HT-1080; HT1080 STAT1-GFP cells, 100 ng/ml IFN-γ 2 hours, compound added 30 min before; read-out: STAT1translo IC50
Procedure, shortened: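 Readout is the nuclear-minus-cytoplasmic GFP-STAT1 intensity, imaged at 10× using Hoechst-defined nuclear masks over at least 1000 cells/well. Stably transfected HT1080 fibrosarcoma cells were pretreated 30 min with compound (final 0.003–10 μM, 0.1% DMSO) before IFN-γ challenge.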

T1 sequence (O60674 808-1132): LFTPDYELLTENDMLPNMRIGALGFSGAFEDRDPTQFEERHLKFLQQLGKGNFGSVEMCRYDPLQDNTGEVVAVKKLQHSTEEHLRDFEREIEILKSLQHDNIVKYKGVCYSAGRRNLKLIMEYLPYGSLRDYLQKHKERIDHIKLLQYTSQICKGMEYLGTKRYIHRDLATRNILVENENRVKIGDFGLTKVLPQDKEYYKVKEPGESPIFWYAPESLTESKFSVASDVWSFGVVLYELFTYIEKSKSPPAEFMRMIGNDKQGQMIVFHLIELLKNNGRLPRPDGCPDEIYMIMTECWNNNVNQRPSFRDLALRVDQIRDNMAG

COCCOC(=O)N1CCC(n2cc(-c3cnc4cccc(-c5cc(F)c(CN6CCOCC6)c(F)c5)c4n3)cn2)CC1 [Example 122, 4-{4-[8-(3,5-Difluoro-4-morpholin-4-ylmethyl-phenyl)-quinoxalin-2-yl]-pyrazol-1-yl}-piperidine-1-carboxylic acid 2-methoxy-ethyl ester]
IC50 (GST-JAK2(808-1132)): 9.35 nM | IC50 (GST-JAK3(811-1124)): 3250 nM | IC50 (GST-JAK1(866-1154)): 475 nM | IC50 (GST-TYK2(888-1187)): 540 nM

Fc1cc(-c2cccc3ncc(-c4cnn(C5CNC5)c4)nc23)cc(F)c1CN1CCOCC1 [Example 116, 2-(1-Azetidin-3-yl-1H-pyrazol-4-yl)-8-(3,5-difluoro-4-morpholin-4-ylmethyl-phenyl)-quinoxaline]
IC50 (GST-JAK2(808-1132)): 8 nM | IC50 (GST-JAK3(811-1124)): 2900 nM | IC50 (GST-JAK1(866-1154)): 243 nM | IC50 (GST-TYK2(888-1187)): 437 nM

Fc1cc(-c2cccc3ncc(-c4cnn(CC5CCCNC5)c4)nc23)cc(F)c1CN1CCOCC1 (racemic) [Example 135, (rac)-8-(3,5-Difluoro-4-morpholin-4-ylmethyl-phenyl)-2-(1-piperidin-3-ylmethyl-1H-pyrazol-4-yl)-quinoxaline]
IC50 [1]: 1350 nM | IC50 (GST-JAK2(808-1132)): 6.1 nM | IC50 (GST-JAK1(866-1154)): 240 nM | IC50 (GST-TYK2(888-1187)): 510 nM

CN1CCN(c2ccc(-c3cnc4cccc(-c5ccc(CN6CCS(=O)(=O)CC6)cc5)c4n3)cn2)CC1 [Example 109, 8-[4-(1,1-Dioxido-thiomorpholin-4-ylmethyl)-phenyl]-2-[6-(4-methyl-piperazin-1-yl)-pyridin-3-yl]-quinoxaline]
IC50 [1]: 3060 nM | IC50 (GST-JAK2(808-1132)): 24 nM | IC50 (GST-JAK1(866-1154)): 150 nM | IC50 (GST-TYK2(888-1187)): 360 nM

Fc1cc(-c2cccc3ncc(-c4cnn(CC5CCNCC5)c4)nc23)cc(F)c1CN1CCOCC1 [Example 133, 8-(3,5-Difluoro-4-morpholin-4-ylmethyl-phenyl)-2-(1-piperidin-4-ylmethyl-1H-pyrazol-4-yl)-quinoxaline]
IC50 [1]: 840 nM | IC50 (GST-JAK2(808-1132)): 5.4 nM | IC50 (GST-JAK1(866-1154)): 550 nM | IC50 (GST-TYK2(888-1187)): 750 nM

Cc1nn(C2CCNCC2)cc1-c1cnc2cccc(-c3cc(F)c(CN4CCOCC4)c(F)c3)c2n1 [Example 127, 8-(3,5-Difluoro-4-morpholin-4-ylmethyl-phenyl)-2-(3-methyl-1-piperidin-4-yl-1H-pyrazol-4-yl)-quinoxaline]
IC50 [1]: 86 nM | IC50 (GST-JAK2(808-1132)): < 3 nM | IC50 (GST-JAK1(866-1154)): 66 nM | IC50 (GST-TYK2(888-1187)): 38 nM

O=S1(=O)CCN(Cc2ccc(-c3cccc4ncc(-c5cnn(C6CCNCC6)c5)nc34)cc2)CC1 [Example 148, 8-[4-(1,1-Dioxido-thiomorpholin-4-ylmethyl)-phenyl]-2-(1-piperidin-4-yl-1H-pyrazol-4-yl)-quinoxaline]
IC50 [1]: 730 nM | IC50 (GST-JAK2(808-1132)): 3.4 nM | IC50 (GST-JAK1(866-1154)): 73 nM | IC50 (GST-TYK2(888-1187)): 110 nM

Cc1cc(-c2cccc3ncc(-c4cnn(C5CCNCC5)c4)nc23)ccc1C(=O)N1CCOCC1 [Example 100, {2-Methyl-4-[3-(1-piperidin-4-yl-1H-pyrazol-4-yl)-quinoxalin-5-yl]-phenyl}-morpholin-4-yl-methanone]
IC50 [1]: 12600 nM | IC50 (GST-JAK2(808-1132)): 130 nM | IC50 (GST-JAK1(866-1154)): 1400 nM | IC50 (GST-TYK2(888-1187)): 1200 nM

O=C(C1CC1)N1CCC(n2cc(-c3cnc4cccc(-c5cc(F)c(CN6CCOCC6)c(F)c5)c4n3)cn2)CC1 [Example 129, Cyclopropyl-(4-{4-[8-(3,5-difluoro-4-morpholin-4-ylmethyl-phenyl)-quinoxalin-2-yl]-pyrazol-1-yl}-piperidin-1-yl)-methanone]
IC50 [1]: 162 nM | IC50 (GST-JAK2(808-1132)): < 3 nM | IC50 (GST-JAK1(866-1154)): 78 nM | IC50 (GST-TYK2(888-1187)): 96 nM

Cc1cc(-c2cccc3ncc(-c4cnn(C5CCNCC5)c4)nc23)ccc1CN1CCOCC1 [Example 146, 8-(3-Methyl-4-morpholin-4-ylmethyl-phenyl)-2-(1-piperidin-4-yl-1H-pyrazol-4-yl)-quinoxaline]
IC50 [1]: 3390 nM | IC50 (GST-JAK2(808-1132)): 9.2 nM | IC50 (GST-JAK1(866-1154)): 840 nM | IC50 (GST-TYK2(888-1187)): 570 nM

CN1CCN(c2cccc(-c3cnc4cccc(-c5cc(F)c(CN6CCS(=O)(=O)CC6)c(F)c5)c4n3)c2)CC1 [Example 170, 8-[4-(1,1-Dioxido-thiomorpholin-4-ylmethyl)-3,5-difluoro-phenyl]-2-[3-(4-methyl-piperazin-1-yl)-phenyl]-quinoxaline]
IC50 [1]: 296 nM | IC50 (GST-JAK2(808-1132)): 4 nM | IC50 (GST-JAK1(866-1154)): 21 nM | IC50 (GST-TYK2(888-1187)): 140 nM

Cc1cc(-c2cnc3cccc(-c4cc(F)c(CN5CCOCC5)c(F)c4)c3n2)ccc1C(=O)NCCO [Example 120, 4-[8-(3,5-Difluoro-4-morpholin-4-ylmethyl-phenyl)-quinoxalin-2-yl]-N-(2-hydroxy-ethyl)-2-methyl-benzamide]
IC50 [1]: 1730 nM | IC50 (GST-JAK2(808-1132)): 13 nM | IC50 (GST-JAK1(866-1154)): 130 nM | IC50 (GST-TYK2(888-1187)): 350 nM

CS(=O)(=O)c1ccc(-c2cccc3ncc(-c4cnn(C5CCNCC5)c4)nc23)cc1 [Example 144, 8-(4-Methanesulfonyl-phenyl)-2-(1-piperidin-4-yl-1H-pyrazol-4-yl)-quinoxaline]
IC50 [1]: 7660 nM | IC50 (GST-JAK2(808-1132)): 25 nM | IC50 (GST-JAK1(866-1154)): 960 nM | IC50 (GST-TYK2(888-1187)): 970 nM

Cc1nn(C2CCN(C(=O)C(C)C)CC2)cc1-c1cnc2cccc(-c3cc(F)c(CN4CCOCC4)c(F)c3)c2n1 [Example 131, 1-(4-{4-[8-(3,5-Difluoro-4-morpholin-4-ylmethyl-phenyl)-quinoxalin-2-yl]-3-methyl-pyrazol-1-yl}-piperidin-1-yl)-2-methyl-propan-1-one]
IC50 [1]: 90 nM | IC50 (GST-JAK2(808-1132)): < 3 nM | IC50 (GST-JAK1(866-1154)): 50 nM | IC50 (GST-TYK2(888-1187)): 33 nM

Fc1cc(-c2cccc3ncc(-c4cnn(C5CCNCC5)c4)nc23)ccc1CN1CCOCC1 [Example 145, 8-(3-Fluoro-4-morpholin-4-ylmethyl-phenyl)-2-(1-piperidin-4-yl-1H-pyrazol-4-yl)-quinoxaline]
IC50 [1]: 685 nM | IC50 (GST-JAK2(808-1132)): 10 nM | IC50 (GST-JAK1(866-1154)): 250 nM | IC50 (GST-TYK2(888-1187)): 300 nM

CC(C)(C)OC(=O)N1CCC(n2cc(-c3cnc4cccc(-c5cc(F)c(CN6CCOCC6)c(F)c5)c4n3)cn2)CC1 [Example 136, 4-{4-[8-(3,5-Difluoro-4-morpholin-4-ylmethyl-phenyl)-quinoxalin-2-yl]-pyrazol-1-yl}-piperidine-1-carboxylic acid tert-butyl ester]
IC50 [1]: 532 nM | IC50 (GST-JAK2(808-1132)): 4.6 nM | IC50 (GST-JAK1(866-1154)): 290 nM | IC50 (GST-TYK2(888-1187)): 260 nM

Fc1cc(-c2cccc3ncc(-c4cnn(C5CCN(C6CC6)CC5)c4)nc23)cc(F)c1CN1CCOCC1 [Example 128, 2-[1-(1-Cyclopropyl-piperidin-4-yl)-1H-pyrazol-4-yl]-8-(3,5-difluoro-4-morpholin-4-ylmethyl-phenyl)-quinoxaline]
IC50 [1]: 196 nM | IC50 (GST-JAK2(808-1132)): < 3 nM | IC50 (GST-JAK1(866-1154)): 130 nM | IC50 (GST-TYK2(888-1187)): 160 nM
